From patent publication US8802597B2, “Herbicidal pyrimidines” (E I du Pont de Nemours and Company, priority 2003, dated 2014)
Read-outs that look alike come from different tables or passages of the source.

Columns and labels:
Type in all cases: in vivo
[1] = test system: pigweed (Amaranthus retroflexus); assay: Test B pre/postemergence; conditions: Amaranthus retroflexus; for pest or weed control at 62 g/ha: 62 g ai/ha; for pest or weed control at 125 g/ha: 125 g ai/ha
Summary of the method: (§1)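 Formulation: non-phytotoxic solvent blend with surfactant. Timing: preemergence on seeds, postemergence at 1- to 4-leaf (2–18 cm). Assessment: visual, 0–100 against controls, after 13–15 days' greenhouse growth.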

[2] = test system: morningglory (Ipomoea coccinea); assay: Test B pre/postemergence; conditions: Ipomoea; for pest or weed control at 62 g/ha: 62 g ai/ha; for pest or weed control at 125 g/ha: 125 g ai/ha
Summary of the method: as §1

[3] = test system: crabgrass (Digitaria sanguinalis); assay: Test B pre/postemergence; conditions: Digitaria sanguinalis; for pest or weed control at 62 g/ha: 62 g ai/ha; for pest or weed control at 125 g/ha: 125 g ai/ha
Summary of the method: as §1

[4] = test system: lambsquarters (Chenopodium album); assay: Test B pre/postemergence; conditions: Chenopodium album; for pest or weed control at 62 g/ha: 62 g ai/ha; for pest or weed control at 125 g/ha: 125 g ai/ha
Summary of the method: as §1

[5] = test system: wheat (Triticum aestivum); assay: Test B pre/postemergence; conditions: Triticum aestivum, scale 0 to 100 (0 no effect, 100 complete control); for plant injury at 62 g/ha: 62 g ai/ha; for plant injury at 125 g/ha: 125 g ai/ha
Summary of the method: as §1

[6] = test system: cocklebur (Xanthium strumarium); assay: Test B pre/postemergence; conditions: Xanthium strumarium; for pest or weed control at 125 g/ha: 125 g ai/ha, scale 0 to 100 (0 no effect, 100 complete control)
Summary of the method: as §1

[7] = test system: giant foxtail (Setaria faberii); assay: Test B pre/postemergence; conditions: Setaria faberi; for pest or weed control at 125 g/ha: 125 g ai/ha; for pest or weed control at 62 g/ha: 62 g ai/ha
Summary of the method: as §1

[8] = test system: corn (Zea mays); assay: Test B pre/postemergence; conditions: Zea mays
Summary of the method: as §1

[9] = test system: velvetleaf (Abutilon theophrasti); assay: Test B pre/postemergence; conditions: Abutilon theophrasti; for pest or weed control at 62 g/ha: 62 g ai/ha; for pest or weed control at 125 g/ha: 125 g ai/ha
Summary of the method: as §1

[10] = test system: barnyardgrass (Echinochloa crus-galli); assay: Test B pre/postemergence; conditions: Echinochloa crus-galli, scale 0 to 100 (0 no effect, 100 complete control); for pest or weed control at 62 g/ha: 62 g ai/ha; for pest or weed control at 125 g/ha: 125 g ai/ha
Summary of the method: as §1

[11] = test system: Surinam grass (Brachiaria decumbens); assay: Test B pre/postemergence; conditions: Urochloa decumbens; for pest or weed control at 125 g/ha: 125 g ai/ha; for pest or weed control at 62 g/ha: 62 g ai/ha
Summary of the method: as §1

[12] = test system: blackgrass (Alopecurus myosuroides); assay: Test B postemergence; conditions: Alopecurus myosuroides, post-emergence, scale 0 to 100 (0 no effect, 100 complete control), read-out: Blackgrass plant response rating
Summary of the method: as §1

[13] = test system: wild oat (Avena fatua); assay: Test B postemergence; conditions: Avena fatua, post-emergence, scale 0 to 100 (0 no effect, 100 complete control), read-out: Oat, Wild plant response rating
Summary of the method: as §1

[14] = test system: umbrella sedge (Cyperus difformis); assay: Test B flooded paddy test; conditions: Cyperus difformis, Flood, scale 0 to 100, read-out: Plant response rating, Sedge, Umbrella
Summary of the method: (§2)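 Visual injury scoring (0 = no effect, 100 = complete control) versus controls made 13 to 15 days after treatment in the greenhouse. Test species were grown in flooded paddy to the 2-leaf stage: rice, barnyardgrass, umbrella sedge, duck salad.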

[15] = test system: rice (Oryza sativa); assay: Test B flooded paddy test; conditions: Oryza sativa, Flood, scale 0 to 100, read-out: Plant response rating, Rice
Summary of the method: as §2

[16] = test system: duck salad (Heteranthera limosa); assay: Test B flooded paddy test; conditions: Heteranthera limosa, Flood, scale 0 to 100, read-out: Plant response rating, Ducksalad
Summary of the method: as §2

[17] = test system: barnyardgrass (Echinochloa crus-galli); assay: Test B flooded paddy test; conditions: Echinochloa crus-galli, Flood, scale 0 to 100, read-out: Plant response rating, Barnyardgrass
Summary of the method: as §2

[18] = post-emergence, Postemergence, scale 0 to 100 (0 no effect, 100 complete control), read-out: Pigweed plant response rating
[19] = post-emergence, Postemergence, scale 0 to 100 (0 no effect, 100 complete control), read-out: Morningglory plant response rating
[20] = post-emergence, Postemergence, scale 0 to 100 (0 no effect, 100 complete control), read-out: Crabgrass plant response rating
[21] = post-emergence, Postemergence, scale 0 to 100 (0 no effect, 100 complete control), read-out: Lambsquarters plant response rating
[22] = post-emergence, Postemergence, read-out: Wheat plant response rating
[23] = pre-emergence, Preemergence, read-out: Plant response rating, Wheat
[24] = post-emergence, Postemergence, scale 0 to 100 (0 no effect, 100 complete control), read-out: Foxtail, Giant plant response rating
[25] = post-emergence, Postemergence, scale 0 to 100 (0 no effect, 100 complete control), read-out: Velvetleaf plant response rating
[26] = post-emergence, Postemergence, read-out: Barnyardgrass plant response rating
[27] = pre-emergence, Preemergence, read-out: Plant response rating, Barnyardgrass
[28] = post-emergence, Postemergence, scale 0 to 100 (0 no effect, 100 complete control), read-out: Surinam Grass plant response rating

`CNc1nc(C2CC2)nc(C(=O)OC)c1Cl` [Compound 79] was tested, and the pest or weed control at 62 g/ha [1, 18] was 80%, the pest or weed control at 125 g/ha [1, 18] was 100% and the pest or weed control at 62 g/ha ([1]; pre-emergence, Preemergence, scale 0 to 100, 0 no effect, 100 complete control, read-out: Plant response rating, Pigweed) was 80%. The pest or weed control at 125 g/ha ([1]; pre-emergence, Preemergence, scale 0 to 100 (0 no effect, 100 complete control), read-out: Plant response rating, Pigweed) was 100%, the pest or weed control at 62 g/ha [2, 19] was 90% and the pest or weed control at 125 g/ha [2, 19] was 100%. For the same molecule, the pest or weed control at 62 g/ha ([2]; pre-emergence, Preemergence, scale 0 to 100, 0 no effect, 100 complete control, read-out: Plant response rating, Morningglory) was 70%, the pest or weed control at 125 g/ha ([2]; pre-emergence, Preemergence, scale 0 to 100 (0 no effect, 100 complete control), read-out: Plant response rating, Morningglory) was 90% and the pest or weed control at 62 g/ha [3, 20] was 30%. The pest or weed control at 125 g/ha [3, 20] was 60%, the pest or weed control at 62 g/ha ([3]; pre-emergence, Preemergence, scale 0 to 100, 0 no effect, 100 complete control, read-out: Plant response rating, Crabgrass) was 0% and the pest or weed control at 125 g/ha ([3]; pre-emergence, Preemergence, scale 0 to 100 (0 no effect, 100 complete control), read-out: Plant response rating, Crabgrass) was 70%. For the same molecule, the pest or weed control at 62 g/ha [4, 21] was 90%, the pest or weed control at 125 g/ha [4, 21] was 100% and the pest or weed control at 62 g/ha ([4]; pre-emergence, Preemergence, scale 0 to 100, 0 no effect, 100 complete control, read-out: Plant response rating, Lambsquarters) was 90%. The pest or weed control at 125 g/ha ([4]; pre-emergence, Preemergence, scale 0 to 100 (0 no effect, 100 complete control), read-out: Plant response rating, Lambsquarters) was 90%, the plant injury at 62 g/ha [5, 22] was 0% and the plant injury at 125 g/ha [5, 22] was 40%. The plant injury at 62 g/ha [5, 23] was 0%, the plant injury at 125 g/ha [5, 23] was 60% and the pest or weed control at 125 g/ha ([6]; post-emergence, Postemergence, read-out: Cocklebur plant response rating) was 60%. It also gave a pest or weed control at 62 g/ha ([6]; pre-emergence, Preemergence, 62 g ai/ha, scale 0 to 100, 0 no effect, 100 complete control, read-out: Plant response rating, Cocklebur) of 50%, a pest or weed control at 125 g/ha ([6]; pre-emergence, Preemergence, read-out: Plant response rating, Cocklebur) of 80% and a pest or weed control at 125 g/ha [7, 24] of 70%. For the same molecule, the pest or weed control at 62 g/ha [7, 24] was 40%, the pest or weed control at 125 g/ha ([7]; pre-emergence, Preemergence, scale 0 to 100 (0 no effect, 100 complete control), read-out: Plant response rating, Foxtail, Giant) was 20% and the pest or weed control at 62 g/ha ([7]; pre-emergence, Preemergence, scale 0 to 100, 0 no effect, 100 complete control, read-out: Plant response rating, Foxtail, Giant) was 0%. It also gave a plant injury at 62 g/ha ([8]; post-emergence, Postemergence, 62 g ai/ha, scale 0 to 100 (0 no effect, 100 complete control), read-out: Corn plant response rating) of 20%, a plant injury at 125 g/ha ([8]; post-emergence, Postemergence, 125 g ai/ha, scale 0 to 100 (0 no effect, 100 complete control), read-out: Corn plant response rating) of 60% and a Corn plant response rating (crop injury, 0 = no effect, 100 = complete kill) at 62 g/ha ([8]; pre-emergence, Preemergence, 62 g ai/ha, scale 0 to 100, 0 no effect, 100 complete control) of 30%. The Corn plant response rating (crop injury, 0 = no effect, 100 = complete kill) at 125 g/ha ([8]; pre-emergence, Preemergence, 125 g ai/ha, scale 0 to 100 (0 no effect, 100 complete control)) was 60%, the pest or weed control at 62 g/ha [9, 25] was 50% and the pest or weed control at 125 g/ha [9, 25] was 80%. It also gave a pest or weed control at 62 g/ha ([9]; pre-emergence, Preemergence, scale 0 to 100, 0 no effect, 100 complete control, read-out: Plant response rating, Velvetleaf) of 50%, a pest or weed control at 125 g/ha ([9]; pre-emergence, Preemergence, scale 0 to 100 (0 no effect, 100 complete control), read-out: Plant response rating, Velvetleaf) of 80% and a pest or weed control at 62 g/ha [10, 26] of 50%. For the same molecule, the pest or weed control at 125 g/ha [10, 26] was 80%, the pest or weed control at 62 g/ha [10, 27] was 0% and the pest or weed control at 125 g/ha [10, 27] was 70%. For the same molecule, the pest or weed control at 125 g/ha [11, 28] was 60%, the pest or weed control at 62 g/ha [11, 28] was 20% and the pest or weed control at 125 g/ha ([11]; pre-emergence, Preemergence, scale 0 to 100 (0 no effect, 100 complete control), read-out: Plant response rating, Surinam Grass) was 0%. The pest or weed control at 62 g/ha ([11]; pre-emergence, Preemergence, scale 0 to 100, 0 no effect, 100 complete control, read-out: Plant response rating, Surinam Grass) was 0%, the pest or weed control at 62 g/ha ([12]; 62 g ai/ha) was 20% and the pest or weed control at 125 g/ha ([12]; 125 g ai/ha) was 50%. The pest or weed control at 62 g/ha ([13]; 62 g ai/ha) was 30%, the pest or weed control at 125 g/ha ([13]; 125 g ai/ha) was 40% and the pest or weed control at 125 g/ha ([14]; 125 g ai/ha) was 0%. The pest or weed control at 500 g/ha ([14]; 500 g ai/ha) was 0%, the plant injury at 125 g/ha ([15]; 125 g ai/ha) was 0% and the plant injury at 500 g/ha ([15]; 500 g ai/ha) was 20%. The pest or weed control at 125 g/ha ([16]; 125 g ai/ha) was 10%, the pest or weed control at 500 g/ha ([16]; 500 g ai/ha) was 70% and the pest or weed control at 125 g/ha ([17]; 125 g ai/ha) was 0%. It also gave a pest or weed control at 500 g/ha ([17]; 500 g ai/ha) of 0%.
